Measurements taken from patent publication US12390472B2 (SUZHOU SINOVENT PHARMACEUTICALS CO., LTD., priority 2018, dated 2025).
Like-named read-outs stand apart in the source and are kept apart here.

Legend:
Pfeiffer = assay: Methylated lysine of histone-H3 (H3K27Me3) detection by ELISA, Pfeiffer cells; assay type: cell-based, human; conditions: 7 days treatment, H3K27Me3 normalized to total histone-3, read-out: IC50 of cell methylation, Pfeiffer
Method in brief: (§1)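 Cells were treated 7 days with compound (4-fold dilutions, 20 uM-0.009 nM), then lysed hypotonically with NaCl adjusted to ~100 mM. Lysate-coated plates were probed by ELISA for H3K27Me3 and total H3 (TMB, A450). Methylation signal was normalised to total H3 before curve fitting.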

EZH2 enzyme complex = EZH2 enzyme complex (Homo sapiens (Human), UniProt Q15910); assay: Test on EZH2 inhibitory activity (TR-FRET); assay type: biochemical; conditions: EZH2 enzyme complex 25 ng/uL, histone H3 peptide 4 uM, SAM 2 uM, 300 min; read-out: IC50 of EZH2 inhibition
Description: • EZH2 enzyme complex: 25 ng/uL • Histone H3 peptide substrate: 4 uM • SAM: 2 uM • Reaction time: 300 min Procedures • 1. Each compound disclosed herein was diluted with 1×HMT buffer and transferred to a 384-well assay plate at 3 uL per well; • 2. The EZH2 enzyme solution was prepared with 1×HMT buffer and transferred to the 384-well assay plate at 2 uL per well; • 3. The above assay plate was incubated for 30 min; • 4. A mixture solution of SAM and histone H3 peptide substrate at 2-fold concentration was prepared with 4×HMT buffer; • 5. 5 uL of the mixture solution of SAM and substrate was added to each well of the assay plate to react at room temperature, and the assay plate was sealed with plastic; • 6. After incubation for 5 h, 10 uL of TR-FRET detection buffer containing Tb-labeled antibody and dye-labeled receptor was added to each well of the assay plate; • 7. After incubation for 1 h at room temperature, the assay plate was detected; • 8.

[1] = In vivo pharmacokinetic properties in mice; set-up: species or system mouse; conditions: male ICR mice; for F: intragastric 250 mg/kg vs intravenous 5 mg/kg; for CL / AUC(0-inf) / Cmax / Tmax / half-life: single intravenous 5 mg/kg and intragastric 250 mg/kg study; for AUC(0-inf) / Cmax / Tmax / half-life: mouse, plasma; for AUC(0-inf) / Cmax / Tmax: oral; for Cmax: read-out: Cmax; for Tmax: read-out: Tmax
Description: Male ICR mice were divided into different groups with 3 mice in each group, and single intravenous injection and single intragastric administration were conducted respectively. The compounds were formulated with 10% DMSO/90% (20% Captisol) to reach an appropriate concentration and then administered intravenously at 5 mg/kg. The compounds were formulated with 0.5% CMC-Na/0.1% Tween 80 (pH=3-4) to reach an appropriate concentration and then administered intragastrically at 250 mg/kg. Blood was taken at 5 min, 15 min, 30 min, 1 h, 2 h, 4 h, 6 h, 8 h and 24 h after administration, and then subjected to EDTA-K2 anticoagulation. The concentration of the compound in the plasma was quantitatively detected by an LC-MS/MS method.

WSU-DLCL2 = assay: Methylated lysine of histone-H3 (H3K27Me3) detection by ELISA, WSU-DLCL2 cells; assay type: cell-based; conditions: WSU-DLCL2, 7 days treatment, H3K27Me3 normalized to total histone-3, read-out: IC50 of cell methylation, WSU-DLCL2
Method in brief: as §1

Chain of EZH2 enzyme complex (Q15910 whole entry): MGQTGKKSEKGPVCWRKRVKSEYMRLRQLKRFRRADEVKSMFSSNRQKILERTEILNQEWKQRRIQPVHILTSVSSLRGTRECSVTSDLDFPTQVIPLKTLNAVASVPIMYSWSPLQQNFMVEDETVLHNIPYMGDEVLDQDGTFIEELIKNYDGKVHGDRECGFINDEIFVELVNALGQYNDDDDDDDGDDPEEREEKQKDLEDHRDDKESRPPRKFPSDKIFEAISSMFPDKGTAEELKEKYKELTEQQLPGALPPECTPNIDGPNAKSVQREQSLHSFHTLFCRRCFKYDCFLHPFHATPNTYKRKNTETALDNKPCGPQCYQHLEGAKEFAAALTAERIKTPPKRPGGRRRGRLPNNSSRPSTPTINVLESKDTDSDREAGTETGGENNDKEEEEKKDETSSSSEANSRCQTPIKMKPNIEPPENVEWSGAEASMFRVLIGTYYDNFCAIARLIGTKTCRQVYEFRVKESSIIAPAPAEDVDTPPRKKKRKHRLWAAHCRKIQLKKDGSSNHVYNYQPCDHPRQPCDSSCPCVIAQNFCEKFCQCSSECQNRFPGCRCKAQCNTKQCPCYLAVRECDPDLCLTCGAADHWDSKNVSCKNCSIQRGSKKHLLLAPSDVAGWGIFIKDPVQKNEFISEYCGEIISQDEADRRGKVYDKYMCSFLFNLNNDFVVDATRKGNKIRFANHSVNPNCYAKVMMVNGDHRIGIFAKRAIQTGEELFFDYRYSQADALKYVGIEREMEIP
Chain of EZH2 enzyme complex (O75530 whole entry partner): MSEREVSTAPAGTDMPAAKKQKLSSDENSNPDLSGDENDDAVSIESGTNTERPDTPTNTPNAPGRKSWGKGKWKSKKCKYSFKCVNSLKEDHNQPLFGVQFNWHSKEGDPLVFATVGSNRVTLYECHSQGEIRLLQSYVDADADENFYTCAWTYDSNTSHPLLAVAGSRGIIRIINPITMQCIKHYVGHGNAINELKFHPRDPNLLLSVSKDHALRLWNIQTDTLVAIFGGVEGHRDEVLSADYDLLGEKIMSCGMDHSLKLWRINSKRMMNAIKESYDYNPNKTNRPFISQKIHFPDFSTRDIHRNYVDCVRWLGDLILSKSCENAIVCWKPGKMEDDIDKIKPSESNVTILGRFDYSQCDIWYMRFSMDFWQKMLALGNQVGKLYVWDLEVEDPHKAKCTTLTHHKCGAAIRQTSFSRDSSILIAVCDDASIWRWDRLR
Chain of EZH2 enzyme complex (Q15022 whole entry partner): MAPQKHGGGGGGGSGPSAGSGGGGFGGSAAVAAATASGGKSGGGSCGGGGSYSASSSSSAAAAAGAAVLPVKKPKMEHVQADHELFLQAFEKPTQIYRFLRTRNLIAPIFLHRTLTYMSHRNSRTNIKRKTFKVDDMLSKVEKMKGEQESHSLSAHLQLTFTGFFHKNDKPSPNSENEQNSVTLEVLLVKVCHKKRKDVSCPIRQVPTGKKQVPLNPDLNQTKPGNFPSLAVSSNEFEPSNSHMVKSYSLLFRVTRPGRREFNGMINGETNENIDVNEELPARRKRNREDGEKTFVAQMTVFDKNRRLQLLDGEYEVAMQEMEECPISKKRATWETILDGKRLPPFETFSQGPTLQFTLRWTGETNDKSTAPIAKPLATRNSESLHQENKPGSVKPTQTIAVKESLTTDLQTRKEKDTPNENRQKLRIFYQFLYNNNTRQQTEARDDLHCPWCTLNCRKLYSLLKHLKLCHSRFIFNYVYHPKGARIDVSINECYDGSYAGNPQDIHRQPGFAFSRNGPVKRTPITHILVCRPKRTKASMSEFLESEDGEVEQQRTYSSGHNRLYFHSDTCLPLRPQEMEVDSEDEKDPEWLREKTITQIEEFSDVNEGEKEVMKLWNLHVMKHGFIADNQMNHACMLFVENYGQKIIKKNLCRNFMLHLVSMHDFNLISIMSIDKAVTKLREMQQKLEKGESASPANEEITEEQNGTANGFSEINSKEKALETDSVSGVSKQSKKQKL

| SMILES | IC50 (Pfeiffer; Homo sapiens, 168 h) [nM] | IC50 (EZH2 enzyme complex) [nM] | F [1] [%] | CL [1] [mL/min/lg] | AUC(0-inf) [1] [ng·h/mL] | Cmax [1] [ng/mL] | Tmax [1] [h] | half-life [1] [h] | IC50 (WSU-DLCL2; Homo sapiens, WSUDLCL2, 168 h) [nM] | IC50 (Pfeiffer) [nM] | IC50 (WSU-DLCL2) [nM] |
| --- | --- | --- | --- | --- | --- | --- | --- | --- | --- | --- | --- |
| CCN(c1cc(O[C@H]2C[C@H](N3CCOCC3)C2)cc(C(=O)NCc2c(C)cc(C)[nH]c2=O)c1C)C1CCOCC1 [Example 4, N-((4,6-dimethyl-2-oxo-1,2-dihydropyridin-3-yl)methyl)-3-(ethyl(tetrahydro-2H-pyran-4-yl)amino)-2-methyl-5-(trans-3-morpholinylcyclobutoxy)benzamide] | < 50 | 10 to 100 | 25.1 | 60.6 ± 19.36 | 18800 ± 487 | 16500 ± 4630 | 0.33 ± 0.14 | 3.13 ± 3.1 | 50 to 500 |  |  |
| CCN(c1cc(O[C@H]2C[C@H](N3C[C@@H](C)O[C@@H](C)C3)C2)cc(C(=O)NCc2c(C)cc(C)[nH]c2=O)c1C)C1CC2CCC(C1)O2 (stereo partly drawn) [Example 47, 3-((8-oxabicyclo[3.2.1]octan-3-yl)(ethyl)amino)-N-((4,6-dimethyl-2-oxo-1,2-dihydropyridin-3-yl)methyl)-5-(trans-3-(cis-2,6-dimethylmorpholinyl)cyclobutoxy)-2-methylbenzamide] | 50 to 500 | 10 to 100 | 118.1 | 103 ± 11.9 | 48000 | 19600 ± 8050 | 0.67 ± 0.29 | 3.1 ± 1.04 | 50 to 500 |  |  |
| Cc1cc(C)c(CNC(=O)c2cc(O[C@H]3C[C@H](N4C[C@@H](C)O[C@@H](C)C4)C3)cc(NC3CCOC3)c2C)c(=O)[nH]1 (stereo partly drawn) [Example 58, N-((4,6-dimethyl-2-oxo-1,2-dihydropyridin-3-yl)methyl)-5-(trans-3-(cis-2,6-dimethylmorpholino)cyclobutoxy)-2-methyl-3-((tetrahydrofuran-3-yl)amino)benzamide] | > 1000 | > 1000 |  |  |  |  |  |  | > 1000 |  |  |
| CCN(c1cc(O[C@H]2C[C@H](N3CCC(C)CC3)C2)cc(C(=O)NCc2c(C)cc(C)[nH]c2=O)c1Cl)C1CCOCC1 [Example 59, 2-chloro-N-((4,6-dimethyl-2-oxo-1,2-dihydropyridin-3-yl)methyl)-3-(ethyl(tetrahydro-2H-pyran-4-yl)amino)-5-(trans-3-(4-methylpiperidin-1-yl)cyclobutoxy)benzamide] | 50 to 500 | < 10 | 60.5 | 59.1 ± 6.95 | 43000 | 16600 | 0.8 ± 0.27 | 6.2 ± 3.83 | < 50 |  |  |
| CCN(c1cc(C2CC2CO)cc(C(=O)NCc2c(C)cc(C)[nH]c2=O)c1C)C1CCOCC1 (stereo not drawn) [Example 71, N-((4,6-dimethyl-2-oxo-1,2-dihydropyridin-3-yl)methyl)-3-(ethyl(tetrahydro-2H-pyran-4-yl)amino)-5-(2-(hydroxymethyl)cyclopropyl)-2-methylbenzamide] | < 50 | 10 to 100 |  |  |  |  |  |  | 50 to 500 |  |  |
| CCN(c1cc(C2CC2CN2CCOCC2)cc(C(=O)NCc2c(C)cc(C)[nH]c2=O)c1C)C1CCOCC1 (stereo not drawn) [Example 72, N-((4,6-dimethyl-2-oxo-1,2-dihydropyridin-3-yl)methyl)-3-(ethyl(tetrahydro-2H-pyran-4-yl)amino)-2-methyl-5-(2-(morpholinylmethyl)cyclopropyl)benzamide] |  | 10 to 100 |  |  |  |  |  |  |  | < 50 | 50 to 500 |
| CCN(c1cc(C2CC2CN2CCNCC2)cc(C(=O)NCc2c(C)cc(C)[nH]c2=O)c1C)C1CCOCC1 (stereo not drawn) [Example 73, N-((4,6-dimethyl-2-oxo-1,2-dihydropyridin-3-yl)methyl)-3-(ethyl(tetrahydro-2H-pyran-4-yl)amino)-2-methyl-5-(2-(piperazin-1-ylmethyl)cyclopropyl)benzamide] | 50 to 500 | 10 to 100 |  |  |  |  |  |  | 50 to 500 |  |  |
| CCN(c1cc(C2CC2CN2CCN(C)CC2)cc(C(=O)NCc2c(C)cc(C)[nH]c2=O)c1C)C1CCOCC1 (stereo not drawn) [Example 74, N-((4,6-dimethyl-2-oxo-1,2-dihydropyridin-3-yl)methyl)-3-(ethyl(tetrahydro-2H-pyran-4-yl)amino)-2-methyl-5-(2-((4-methylpiperazin-1-yl)methyl)cyclopropyl)benzamide] | < 50 | 10 to 100 |  |  |  |  |  |  | 50 to 500 |  |  |
| CCN(c1cc(C2CC2CN2C[C@@H](C)O[C@@H](C)C2)cc(C(=O)NCc2c(C)cc(C)[nH]c2=O)c1C)C1CCOCC1 (stereo partly drawn) [Example 75, N-((4,6-dimethyl-2-oxo-1,2-dihydropyridin-3-yl)methyl)-5-(2-((cis-2,6-dimethylmorpholinyl)methyl)cyclopropyl)-3-(ethyl(tetrahydro-2H-pyran-4-yl)amino)-2-methylbenzamide] | < 50 | 10 to 100 |  |  |  |  |  |  | > 1000 |  |  |
| CCN(c1cc(C2CC2CN2CCN(CC(C)(C)C)CC2)cc(C(=O)NCc2c(C)cc(C)[nH]c2=O)c1C)C1CCOCC1 (stereo not drawn) [Example 76, N-((4,6-dimethyl-2-oxo-1,2-dihydropyridin-3-yl)methyl)-3-(ethyl(tetrahydro-2H-pyran-4-yl)amino)-2-methyl-5-(2-((4-neopentylpiperazin-1-yl)methyl)cyclopropyl)benzamide] | < 50 | 10 to 100 |  |  |  |  |  |  | 50 to 500 |  |  |
| CCN(c1cc(C2CC2CN2CCCCC2)cc(C(=O)NCc2c(C)cc(C)[nH]c2=O)c1C)C1CCOCC1 (stereo not drawn) [Example 77, N-((4,6-dimethyl-2-oxo-1,2-dihydropyridin-3-yl)methyl)-3-(ethyl(tetrahydro-2H-pyran-4-yl)amino)-2-methyl-5-(2-(piperidin-1-ylmethyl)cyclopropyl)benzamide] | < 50 | 10 to 100 |  |  |  |  |  |  | 50 to 500 |  |  |
| CCN(c1cc(C2CC2CN2CCC(F)(F)CC2)cc(C(=O)NCc2c(C)cc(C)[nH]c2=O)c1C)C1CCOCC1 (stereo not drawn) [Example 78, 5-(2-((4,4-difluoropiperidin-1-yl)methyl)cyclopropyl)-N-((4,6-dimethyl-2-oxo-1,2-dihydropyridin-3-yl)methyl)-3-(ethyl(tetrahydro-2H-pyran-4-yl)amino)-2-methylbenzamide] | < 50 | 10 to 100 |  |  |  |  |  |  | 50 to 500 |  |  |
| CCN(c1cc(C2CC2CN2CCC(F)CC2)cc(C(=O)NCc2c(C)cc(C)[nH]c2=O)c1C)C1CCOCC1 (stereo not drawn) [Example 79, N-((4,6-dimethyl-2-oxo-1,2-dihydropyridin-3-yl)methyl)-3-(ethyl(tetrahydro-2H-pyran-4-yl)amino)-5-(2-((4-fluoropiperidin-1-yl)methyl)cyclopropyl)-2-methylbenzamide] | < 50 | 10 to 100 |  |  |  |  |  |  | 50 to 500 |  |  |
